These results are taken from patent US11337420B2, “Cryopreservation of juvenile stages of barnacles” (Planktonic AS, priority 2016, dated 2022).

Each structure is given as a SMILES string. Like-named read-outs stand apart in the source and are kept apart here. Where only a bound is given, the exact number is not on record here.

In data set [1] the test system is Barnacle nauplii stage I and II from Semibalanus balanoides. Nature of the data set: Cryopreservation, thawing and revitalization of nauplii, viability check (different cryoprotectants, volume ratios, equilibrium periods). The class given is in vivo. As for the experimental part:
(§1) Barnacle nauplii (Semibalanus balanoides or Balanus crenatus) were drained and concentrated (10% dry weight) and mixed 1:1 with a cryoprotectant (on ice). The mixture was filled, sealed and equilibrated in a pouch (600 gram consisting of 300 ml cryoprotectant and 300 ml barnacles) for 30 minutes at 5 ° C. before transferring to a controlled freezer. The pouch was put in an aluminum rack, and temperature loggers were put inside the pouch and in the freezer to measure air temperature. Alternatively smaller amount of about 60 g or vials were used in the tests.
(§2) After freezing from 5 to −42 ° C., with a duration of >12 hours using the disclosed method, the pouches were soaked in liquid nitrogen until −196 ° C. were homogenously achieved inside the pouches. The pouches were transferred to cryocontainers (with liquid nitrogen) of 175 liters, and stored for more than 48 hours. To check viability, the pouches were removed from the cryocontainer, crushed to get out the content and thawed in cold seawater (less than 5 ° C.). After 15 minutes, the thawed nauplii were washed on a 100 μm filter to remove the cryoprotectant. Revitalization was performed for >8 hours in an aerated tank with 30 PSU seawater (start temperature 2.5 ° C.).
Barnacle nauplii stage I and II from Semibalanus balanoides were treated with a 6 molar solution of dimethyl sulfoxide (DMSO) as cryoprotectant and 1:1 mixing between cryoprotectant and organisms. Equilibrium was performed for 30 minutes at 3 to 5° C.
Samples of these organisms were cryopreserved in a volume ratio of A) 30% cryoprotectant to 70% organisms (volume/volume) and B) 40% cryoprotectant to 60% organisms (volume/volume). The control was C) 50% cryoprotectant to 50% organisms (volume/volume). All tests were carried out in triplicate.
(1:1 volume ratio with organisms). Thereafter the organisms were cryopreserved by the disclosed method, stored in liquid nitrogen for 48 hours, thawed and revitalized. The barnacle nauplii were analyzed for their vitality using a binocular microscope.

The test system of data set [2] is Barnacle nauplii stage I and II of Semibalanus balanoides. As for the experimental part:
Samples were taken out after 0, 1, 2, 4, 8, 12, and 24 hours and the cryoprotectant was washed out to check viability of the nauplii. Levels of viability were identified as 0, 1, 2, 3, 4 and 5. “0” represents no activity (dead nauplii), 1-3 are twitching of appendages less than pre-cryopreserved nauplii, but 3 are close to natural swimming. 4 are swimming as pre-cryopreserved nauplii, and 5 are over-stimulated nauplii.

In data set [3] the test system is Barnacle nauplii stage I and II from Semibalanus balanoides or Balanus crenatus. The note with it: 7.2 molar solution, 1:1 mixing between cryoprotectant and organisms. The protocol: as §1, §2
The conditions of data set [4]: for content of ethylene glycol in drained barnacle nauplii: revitalization in 30 liters of seawater. An excerpt:
Immediately after thawing, the nauplii was drained for water and frozen again.
A small piece of frozen material was taken on a filter, and rinsed until it was thawed, and thereafter frozen and analyzed. […] When revitalized, the barnacle nauplii were drained again for seawater, and added 30 liters of seawater.

Another data set deals with aquatic organisms. Particulars: aquatic organisms in general; cited from earlier work.
In data set [5] the test system is nauplii of Balanus amphitrite. Particulars: 3 to 4 M, equilibration time up to 2 h; cited from earlier work.
Another data set has as its system nauplii. Particulars: salt in the cryoprotectant solution compared to no salt addition. The source says: The final salt concentration of NaCl is thereby preferably between 2.0 to 4.5%, more preferably between 3.0 to 3.8%, most preferred between 3.2 and 3.8%.
[6] abbreviates: 600 gram sample in 15 liter seawater, after 15 minutes.

In the case of `C[S+](C)[O-]` [DMSO, dimethyl sulfoxide], the viability after thawing entry in data set [1] (6 molar solution, 1:1 mixing, equilibrium 30 minutes at 3 to 5° C.) is listed as “comparable to barnacle nauplii exposed to ethylene glycol”.

As to `CC(O)CO` (centres unmarked) [propylene glycol], the “percentage of viable nauplii after thawing” value in data set [1] (40% by volume mixed with 60% by volume seawater, volume ratio 1:1) is “minimal compared to ethylene glycol”.

Take `OCCO` [ethylene glycol]: the “individuals showing relatively good swimming behavior” value in data set [2] (7.2 molar ethylene glycol stock solution, on ice, even after 24 hour of exposure) is given as 80-90%. In addition, the “level of viability of recovered nauplii” value in data set [2] (7.2 molar ethylene glycol stock solution, on ice, even after 24 hour of exposure, cryoprotectant washed out) is reported as 2-3. Moreover, the “harm to nauplii in toxicity test” value in data set [2] (equilibrium period of 24 hours with 7.2 M (stock solution) ice cold) is reported as “does not considerably harm barnacle nauplii”. Further, in data set [3], the “nauplii with natural swimming activity (level 4) after thawing” value is > 50% and the “swimming activity level of the remaining nauplii after thawing” value is given as 1-3. Besides, in data set [1] (30%, 40% or 50% cryoprotectant to 70%, 60% or 50% organisms (volume/volume), triplicate), the “viability, difference between volume ratios” value is listed as “no significant between the treatments in terms of viability”. In addition, the “vitality, difference between equilibrium periods” value in data set [1] (incubated 0, 15, 30, 60 minutes in 7.2 M at 5 ° C., 1:1 volume ratio) is given as “No significant differences in vitality”. The “vitality after equilibrium period” value in data set [1] (incubated 90 minutes in 7.2 M at 5 ° C., 1:1 volume ratio) is “less vital organisms than the other treatments”. Also, the “equilibration of cryoprotectant with the organisms” value in data set [4] (7.2 molar solution added to drained material) is reported as < 15%. Also, in data set [4] (setting [6]), the “content as share of the added ethylene glycol” value was < 2% and the “ethylene glycol concentration in nauplii” value is listed as “about 0.1 M”. Further, the “content of ethylene glycol in drained barnacle nauplii” value in data set [4] (after one hour) is reported as < 25 ppm. Further, the “content of ethylene glycol in drained barnacle nauplii” value in data set [4] (after two hours, detection level) was < 10 ppm. The “ethylene glycol concentration inside the organisms” value in data set [4] (second step: drained, 15 liter of seawater added for washing) is on record as < 300 ppm. Also, the “ethylene glycol content in nauplii” value in data set [4] (time zero sample, rinsed until thawed, 7.2 M, volume ratio 1:1) is recorded as 7400-11000 ppm. Besides, the “level regarded as non-toxic” value with aquatic organisms is given as ≤ 100 ppm. Further, the damage to nauplii result in data set [5] was “did not cause damage”.

`[Cl-].[Na+]` [NaCl]: in the data set on nauplii, the revitalization of nauplii entry is reported as “improve the revitalization of nauplii compared to no salt addition”.
